Earlier results as cited in patent US20080095853A1, “Modified Release For Proton Pump Inhibitors” (priority 2004, published 2008).

Tested on: gastric acid
Conditions: splitting a 40 mg dose into 20 mg bid

COc1ccc2nc([S@@+]([O-])Cc3ncc(C)c(OC)c3C)[nH]c2c1 [esomeprazole]
nocturnal gastric acid suppression: significantly improved
